Consider eight molecules from patent US8518876B2, “Composition for long-acting peptide analogs” (Pharmaln Corporation, priority 2007, dated 2013).

Series [1] deals with human umbilical chord artery endothelial cells (HUAEC). In words: Ca-influx after vasopressin analog stimulation of HUAEC, samples pre-incubated in human serum. It counts as cell-based. Set-up: key to Activity of Various Vasopressin Analogs, 0 h / Activity of Various Vasopressin Analogs, 1 h / Activity of Various Vasopressin Analogs, 2 h / Activity of Various Vasopressin Analogs, 4 h: “−” for no detectable activity; “+” to “+++” for slight to high activity; “+” to “+++” for slight to high activity; “+” to “+++” for slight to high activity. The conditions noted are these: for Activity of Various Vasopressin Analogs, 0 h: 0 h pre-incubation in pooled human serum at 37° C. (serum present); for Activity of Various Vasopressin Analogs, 0 h / Activity of Various Vasopressin Analogs, 1 h / Activity of Various Vasopressin Analogs, 2 h / Activity of Various Vasopressin Analogs, 4 h: Ca-influx in HUAEC, 50 nM per well; for Activity of Various Vasopressin Analogs, 1 h: 1 h pre-incubation in pooled human serum at 37° C.; for Activity of Various Vasopressin Analogs, 2 h: 2 h pre-incubation in pooled human serum at 37° C.; for Activity of Various Vasopressin Analogs, 4 h: 4 h pre-incubation in pooled human serum at 37° C.; for course of activity on incubation in human serum: in words. From the text: Ca-influx after vasopressin analog stimulation of human umbilical chord artery endothelial cells (HUAEC) was used to test the biological activity of the various vasopressin analogs. The material used were: 75 cm^2 tissue culture flasks, BD Bioscience, Bedford Mass. (catalogue number 137787) with 0.2 μm vented blue plug seal caps (catalogue number 353136); human umbilical artery endothelial cells (HUAEC), Lonza, Walkersville, Md. (catalogue number CC-2520); EGM-2 fully supplement medium, Lonza, Walkersville, Md. (catalogue number CC-3162); Fura-2 AM, Invitrogen/Molecular Probes, Carlsbad, Calif. (catalogue number F-1221) (Fura-2 AM is a high affinity, intracellular calcium indicator that is ratiometric and UV light-excitable; the acetoxymethyl (AM) ester form is useful for noninvasive intracellular loading as it is cell permeable. Once inside the cell the ester is clipped which renders the Fura-2 molecule cell impermeable and therefore trapped inside.); terlipressin derivatives custom made by Anaspec, San Jose Calif., according to inventors specifications; pooled human serum, Sigma, St. Louis, Mo. (catalogue number H4522); phosphate buffered saline (PBS), Fisher Scientific, Fair Lawn, N.J. (catalogue number BP399-500); trypsin-EDTA solution, 0.25%, Invitrogen/Gibco, Carlsbad, Calif. (catalogue number 25200-072); heat inactivated fetal bovine serum (FBS), Invitrogen/Gibco, Carlsbad, Calif. (catalogue number 10438-026); black polystyrene 96 well flat-bottom assay plates, Corning Inc., Corning, N.Y. (catalogue number 3916); Chameleon plate multilabel detection reader, Hidex, Turku, Finland, distributed by Bioscan, Washington, D.C.; dimethyl sulfoxide (DMSO), Fisher Scientific, Fair Lawn, N.J. (catalogue number D-136-1).
The methods used for tissue or cell culture are as follows: a vial of HUAEC (>0.5×10^6 cells) was thawed and seeded in two 75 cm^2 flasks with 15 ml EGM-2 medium each. Cells were grown over night and medium was changed. Media in the flasks were changed on a Monday, Wednesday, Friday schedule. Cells were split at approximately 80% confluency (using trypsin). Media were removed and the flasks were washed with 10 ml 1×PBS. The PBS was removed, 1.5 ml trypsin-EDTA solution was added and incubated for 5 min at 37° C. Three ml of FBS added and the cells were counted. The cells were centrifuged at 200×G for 5 min, resuspended in EGM-2 medium and distributed into new 75 cm2 flasks @ 3000-5000 cells per cm2.
To prepare for the Ca2+-influx assay, cells were distributed into one black 96 well plate @ 10^5 cells/well. Cells were allowed to adhere overnight and the medium was then removed. Fifty μg Fura-2 was dissolved in 50 μl DMSO and added to 10 ml PBS/2% FBS. The cells were stained with 20 μl of 5 μg/ml Fura-2 in PBS/2% FBS for 2 h, then 180 μl EGM-2 medium supplemented with CaCl2 and glucose was added (10 mM CaCl2 and 11.1 mM glucose final concentrations).
To prepare analogs for testing, 50 uM terlipressin (or derivative) stock solution in DMSO was prepared. […] (placed on ice after incubation).
To measure Ca-influx, Fura-2 fluorescence was measured for 4 repetitions per well at 340 nm ex/510 nm em and 420 nm ex/510 nm em (4 measurement before and 16 after injection of drug. At t=12 sec, 20 μl of terlipressin or derivative was injected as a 500 nM solution (or serum) for a final concentration of 50 nM per well. Fura-2 fluorescence was measured for […] per well at 340 nm ex/510 nm em and 420 nm ex/510 nm em (4 measurements before and 16 after injection of drug). The controls included injected human serum alone, and terlipressin or derivative dissolved in PBS as […]. All measurements were done in hexuplicate.
Data analysis was done using Graphpad Prism version 5.0 software (Graphpad software Inc, San Diego, Calif.). […]

Series [2] in a line: Solubility in water of the synthesized peptide. Format: physicochemical. As to conditions: in words.
A further series deals with rat ear model. As to the kind of experiment: Rat ear model, maintenance of vasoconstriction (paleness of ears) after subcutaneous injection. Format: in vivo. As to conditions: for loss of paleness after: subcutaneous injection, ears examined after 6 and 24 h. How it is done: Using a rat ear model, a vasopressin analog with metal binding moiety of the present invention, His6Ter (“His6” disclosed as SEQ ID NO: 52), was evaluated for it ability to maintain vasoconstriction for an extended period of time. The analog was formulated at a 2% load in polymeric carrier containing 40PLPEG537-Zn-chelate. The peptide analog-polymeric complex was injected subcutaneously into the back of one set of rats, while terlipressin alone was also injected similarly in another set of rats. The ears were examined at baseline and at intervals up to 48 h.
Using the same model, the effects of delayed release of biologically-active lysine vasopressin from the peptide analog His6Ter (“His6” disclosed as SEQ ID NO: 52), with or without complexing in polymeric carrier, was tested. In the experiment, terlipressin was conjugated with a his tag metal binding moiety to result in the His6Ter peptide analog (“His6” disclosed as SEQ ID NO: 52). A portion of the His6Ter analog (“His6” disclosed as SEQ ID NO: 52) was formulated at 2% loading in 40PLPEG537-Zn-chelate. The three test materials were injected subcutaneously into groups of rats and the ears were examined after 6 and 24 h.

Molecules are shown by their SMILES. Where a SMILES comes first, the peptide text is derived from it. Bridges are numbered along the chain shown (N, C = ends). [ ]: non-standard residue; d: D form. The star is where a group is joined. ξ: configuration not given here. Lauroyl = CCCCCCCCCCCC(=O)*; Octanoyl = CCCCCCCC(=O)*; ξLac = CC(O)C(=O)O

`CCCCCCCC(=O)NCC(=O)NCC(=O)NCC(=O)N[C@H]1CSSC[C@@H](C(=O)N2CCC[C@H]2C(=O)N[C@@H](CCCCN)C(=O)NCC(N)=O)NC(=O)[C@H](CC(N)=O)NC(=O)[C@H](CCC(N)=O)NC(=O)[C@H](Cc2ccccc2)NC(=O)[C@H](Cc2ccc(O)cc2)NC1=O` [C8TerA, CH3(CH2)6CO-Gly-Gly-Gly-Cys-Tyr-Phe-Gln-Asn-Cys-Pro-Lys-Gly-NH2] (Octanoyl-GGGCYFQNCPKG-NH2; disulfide 4-9): in series [1], the “Activity of Various Vasopressin Analogs, 0 h” value is recorded as “+++”; the “Activity of Various Vasopressin Analogs, 1 h” value is listed as “+++”; the “Activity of Various Vasopressin Analogs, 2 h” value is “+++”; the “Activity of Various Vasopressin Analogs, 4 h” value is reported as “+++”. Moreover, in series [2], the solubility in water result is reported as “water soluble”.
Take `CCCCCCCC(=O)OC(C)C(=O)NCC(=O)NCC(=O)NCC(=O)N[C@H]1CSSC[C@@H](C(=O)N2CCC[C@H]2C(=O)N[C@@H](CCCCN)C(=O)NCC(N)=O)NC(=O)[C@H](CC(N)=O)NC(=O)[C@H](CCC(N)=O)NC(=O)[C@H](Cc2ccccc2)NC(=O)[C@H](Cc2ccc(O)cc2)NC1=O` (stereo partly drawn) [C8TerE, CH3(CH2)6CO—OHC(CH3)CO-Gly-Gly-Gly-Cys-Tyr-Phe-Gln-Asn-Cys-Pro-Lys-Gly-NH2] (Octanoyl-[ξLac]GGGCYFQNCPKG-NH2; disulfide 5-10): the solubility in water entry in series [2] is listed as “water soluble”.
With `CCCCCCCCCCCC(=O)OC(C)C(=O)NCC(=O)NCC(=O)NCC(=O)N[C@H]1CSSC[C@@H](C(=O)N2CCC[C@H]2C(=O)N[C@@H](CCCCN)C(=O)NCC(N)=O)NC(=O)[C@H](CC(N)=O)NC(=O)[C@H](CCC(N)=O)NC(=O)[C@H](Cc2ccccc2)NC(=O)[C@H](Cc2ccc(O)cc2)NC1=O` (stereo partly drawn) [C12TerE, CH3(CH2)10CO—OHC(CH3)CO-Gly-Gly-Gly-Cys-Tyr-Phe-Gln-Asn-Cys-Pro-Lys-Gly-NH2] (Lauroyl-[ξLac]GGGCYFQNCPKG-NH2; disulfide 5-10), in series [1], the “Activity of Various Vasopressin Analogs, 0 h” value is “+++”; the “Activity of Various Vasopressin Analogs, 1 h” value is recorded as “+”; the “Activity of Various Vasopressin Analogs, 2 h” value was “−”; the “Activity of Various Vasopressin Analogs, 4 h” value is reported as “−”. In addition, the solubility in water entry in series [2] was “limited solubility in water”.
As to `NCCCC[C@H](NC(=O)[C@@H]1CCCN1C(=O)[C@@H]1CSSC[C@H](NC(=O)CNC(=O)CNC(=O)CNC(=O)[C@H](Cc2c[nH]cn2)NC(=O)[C@H](Cc2c[nH]cn2)NC(=O)[C@@H](N)Cc2c[nH]cn2)C(=O)N[C@@H](Cc2ccc(O)cc2)C(=O)N[C@@H](Cc2ccccc2)C(=O)N[C@@H](CCC(N)=O)C(=O)N[C@@H](CC(N)=O)C(=O)N1)C(=O)NCC(N)=O` [His3Ter, His-His-His-Gly-Gly-Gly-Cys-Tyr-Phe-Gln-Asn-Cys-Pro-Lys-Gly-NH2] (H-HHHGGGCYFQNCPKG-NH2; disulfide 7-12), the solubility in water entry in series [2] is reported as “water soluble”.
For the molecule `N=C(N)NCCC[C@H](NC(=O)[C@@H]1CCCN1C(=O)[C@@H]1CSSC[C@H](NC(=O)CNC(=O)CNC(=O)CNC(=O)[C@H](Cc2c[nH]cn2)NC(=O)[C@H](Cc2c[nH]cn2)NC(=O)[C@@H](N)Cc2c[nH]cn2)C(=O)N[C@@H](Cc2ccc(O)cc2)C(=O)N[C@@H](Cc2ccccc2)C(=O)N[C@@H](CCC(N)=O)C(=O)N[C@@H](CC(N)=O)C(=O)N1)C(=O)NCC(N)=O` [His3Vas, His-His-His-Gly-Gly-Gly-Cys-Tyr-Phe-Gln-Asn-Cys-Pro-Arg-Gly-NH2] (H-HHHGGGCYFQNCPRG-NH2; disulfide 7-12), the solubility in water entry in series [2] is reported as “water soluble”.
Take `NCCCC[C@H](NC(=O)[C@@H]1CCCN1C(=O)[C@@H]1CSSC[C@H](NC(=O)CNC(=O)CNC(=O)CNC(=O)[C@H](Cc2c[nH]cn2)NC(=O)[C@H](Cc2c[nH]cn2)NC(=O)[C@H](Cc2c[nH]cn2)NC(=O)[C@H](Cc2c[nH]cn2)NC(=O)[C@H](Cc2c[nH]cn2)NC(=O)[C@@H](N)Cc2c[nH]cn2)C(=O)N[C@@H](Cc2ccc(O)cc2)C(=O)N[C@@H](Cc2ccccc2)C(=O)N[C@@H](CCC(N)=O)C(=O)N[C@@H](CC(N)=O)C(=O)N1)C(=O)NCC(N)=O` [His6Ter, His-His-His-His-His-His-Gly-Gly-Gly-Cys-Tyr-Phe-Gln-Asn-Cys-Pro-Lys-Gly-NH2] (H-HHHHHHGGGCYFQNCPKG-NH2; disulfide 10-15): the “loss of paleness after” value in the series on rat ear model was 6 h. In series [2], the solubility in water result is reported as “water soluble”.
With `N=C(N)NCCC[C@H](NC(=O)[C@@H]1CCCN1C(=O)[C@@H]1CSSC[C@H](NC(=O)CNC(=O)CNC(=O)CNC(=O)[C@H](Cc2c[nH]cn2)NC(=O)[C@H](Cc2c[nH]cn2)NC(=O)[C@H](Cc2c[nH]cn2)NC(=O)[C@H](Cc2c[nH]cn2)NC(=O)[C@H](Cc2c[nH]cn2)NC(=O)[C@@H](N)Cc2c[nH]cn2)C(=O)N[C@@H](Cc2ccc(O)cc2)C(=O)N[C@@H](Cc2ccccc2)C(=O)N[C@@H](CCC(N)=O)C(=O)N[C@@H](CC(N)=O)C(=O)N1)C(=O)NCC(N)=O` [His6Vas, His-His-His-His-His-His-Gly-Gly-Gly-Cys-Tyr-Phe-Gln-Asn-Cys-Pro-Arg-Gly-NH2] (H-HHHHHHGGGCYFQNCPRG-NH2; disulfide 10-15), in series [2], the solubility in water result is “water soluble”.
`NCCCC[C@H](NC(=O)[C@@H]1CCCN1C(=O)[C@@H]1CSSC[C@H](NC(=O)CNC(=O)CNC(=O)CN)C(=O)N[C@@H](Cc2ccc(O)cc2)C(=O)N[C@@H](Cc2ccccc2)C(=O)N[C@@H](CCC(N)=O)C(=O)N[C@@H](CC(N)=O)C(=O)N1)C(=O)NCC(N)=O` [Terlipressin, reference compound] (H-GGGCYFQNCPKG-NH2; disulfide 4-9): the “ear colour at 6 h” value with rat ear model (subcutaneous injection into the back, 6 h) is listed as “pale”. Also, in the series with rat ear model (subcutaneous injection into the back, 24 h), the “ear colour at 24 h” value is listed as “returned to a baseline color”. Further, in the series with rat ear model, the “loss of paleness after” value was found to be 6 h. Moreover, in series [1], the “Activity of Various Vasopressin Analogs, 0 h” value is reported as “+++”; the “Activity of Various Vasopressin Analogs, 1 h” value is given as “+”; the “Activity of Various Vasopressin Analogs, 2 h” value is given as “−”; the “Activity of Various Vasopressin Analogs, 4 h” value was “−”. The “course of activity on incubation in human serum” value in series [1] is given as “loses its activity quickly”. Besides, in series [1] (listed as terlipressin), the “course of activity on incubation in human serum” value was “losses activity immediately afterwards”.
